Among the data in patent publication US20240254143A1, “OREXIN RECEPTOR AGONISTS AND USES THEREOF” (JAZZ PHARMACEUTICALS IRELAND LIMITED, priority 2021, published 2024) are EC50 values, retold here.

The experiment addresses T1, human recombinant OX2 (hOX2) receptor (Homo sapiens, UniProt O43614).
T1 construct: host or cells: CHO cells
T1 sequence (O43614 1-444): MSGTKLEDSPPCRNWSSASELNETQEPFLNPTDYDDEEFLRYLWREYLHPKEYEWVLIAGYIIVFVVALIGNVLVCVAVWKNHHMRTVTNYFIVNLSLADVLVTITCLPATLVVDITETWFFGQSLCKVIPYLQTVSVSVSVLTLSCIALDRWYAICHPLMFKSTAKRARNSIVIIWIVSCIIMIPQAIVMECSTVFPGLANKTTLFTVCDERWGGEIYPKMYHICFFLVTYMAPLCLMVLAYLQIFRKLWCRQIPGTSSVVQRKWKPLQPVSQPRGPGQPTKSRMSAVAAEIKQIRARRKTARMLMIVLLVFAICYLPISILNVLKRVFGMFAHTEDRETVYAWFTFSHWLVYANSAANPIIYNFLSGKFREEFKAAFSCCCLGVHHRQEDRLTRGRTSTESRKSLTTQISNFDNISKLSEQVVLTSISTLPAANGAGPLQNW
Description: IP-1 accumulation assay (IP-One HTRF) in hOX2-CHO cells. It is filed as cell-based. The following applies: 60 min at 37° C., mean of at least two independent experiments, read-out: EC50_OX2R Category. How it is done: Example 94: IP-1 Accumulation Assay
The accumulation of Inositol-1 Monophosphate (IP-1) was measured using IP-One HTRF® Terbium cryptate based assay (Cisbio) in human recombinant OX1 (hOX1) and at OX2 (hOX2) receptors expressed in CHO cells (DiscoverX) according to the manufacturer's instructions for cells tested in suspension.
hOX1-CHO and hOX2-CHO cells were seeded into white 384-well plates at a density of 20,000 cells/well in Hank's Balanced Salt Solution (HBSS) containing 20 mM HEPES pH 7.4, 50 mM, LiCl and 0.1% and Bovine Serum Albumin (BSA).
Compounds of the present disclosure were tested in a 11 points concentration response curve (CRC) serially diluted in neat DMSO at 200 fold concentrations and added by Echo acoustic liquid handling (Labcyte) to the cells (0.5% DMSO final in the assay). After 60 min of incubation at 37° C. detection reagents, IP1-d2 tracer and anti-IP1-cryptate were diluted in lysis buffer according to the manufacturer's descriptions and added to the cells.
Following 60 mi incubation at room temperature, time-resolved fluorescence (HTRF) was measured at 615 nm and 665 nm by Envision Multilabel reader (Perkin Elmer) and the HTRF ratio (A665/A615×10^4) was calculated.
The IP-1 accumulation response was expressed as percentage of the maximal OX-A response.
Curve fitting and EC50 estimations were carried out using a four-parameter logistic model using XLfit Software. Mean data of EC50 are calculated from at least two independent experiments performed in duplicates.
In general terms: Time-resolved FRET reads energy transfer from a long-lived donor to a nearby acceptor.
As to `COC(=O)N1CCCC2(CCC(=O)N2)C1Cc1cccc(-c2ccccc2)c1` (mixture of isomers) [Example 28, Methyl 6-({[1,1′-biphenyl]-3-yl}methyl)-2-oxo-1,7-diazaspiro[4.5]decane-7-carboxylate], the EC50 was above 10000 nM.

Take `CCNC(=O)N1CCCC2(COCC(=O)N2)C1CO[C@H]1CC[C@@H](c2ccccc2)CC1` (mixture of isomers) [Example 1, (CIS)-N-ethyl-2-oxo-7-({[(CIS)-4-phenylcyclohexyl]oxy}methyl)-4-oxa-1,8-diazaspiro[5.5]undecane-8-carboxamide]: the EC50 was below 100 nM.

With `COC(=O)N1CCCC2(COCC(=O)N2)C1CO[C@H]1CC[C@@H](c2ccccc2)CC1` (mixture of isomers) [Example 4, Methyl (CIS)-2-oxo-7-({[(CIS)-4-phenylcyclohexyl]oxy}methyl)-4-oxa-1,8-diazaspiro[5.5]undecane-8-carboxylate], the EC50 was in the range of 1000 to 10000 nM.

As for `O=C1COCC2(CCCN(C(=O)C3CC3)C2CO[C@H]2CC[C@@H](c3ccccc3)CC2)N1` (mixture of isomers) [Example 7, (CIS)-8-cyclopropanecarbonyl-7-({[(CIS)-4-phenylcyclohexyl]oxy}methyl)-4-oxa-1,8-diazaspiro[5.5]undecan-2-one], the EC50 fell in the range of 100 to 1000 nM.

Consider `CCNC(=O)N1CCCC2(COC(=O)N2)C1CO[C@H]1CC[C@@H](c2ccccc2)CC1` (mixture of isomers) [Example 10], for which the EC50 was in the range of 1000 to 10000 nM.

For the compound `CCNC(=O)N1CCC2(COCC(=O)N2)C1CO[C@H]1CC[C@@H](c2ccccc2)CC1` (mixture of isomers) [Example 15, (CIS)-N-ethyl-7-oxo-1-({[(CIS)-4-phenylcyclohexyl]oxy}methyl)-9-oxa-2,6-diazaspiro[4.5]decane-2-carboxamide], the EC50 lay in the range of 1000 to 10000 nM.

Consider `CCNC(=O)N1CCC2(COC(=O)N2)C1CO[C@H]1CC[C@@H](c2ccccc2)CC1` (mixture of isomers) [Example 18, (CIS)-N-ethyl-2-oxo-6-({[(CIS)-4-phenylcyclohexyl]oxy}methyl)-3-oxa-1,7-diazaspiro[4.4]nonane-7-carboxamide], for which the EC50 is above 10000 nM.

On to `CCNC(=O)N1CCC[C@@]2(CCOC(=O)N2)[C@@H]1Cc1cccc(-c2ccccc2)c1` (racemic) [Example 24, (CIS)-7-({[1,1′-biphenyl]-3-yl}methyl)-N-ethyl-2-oxo-3-oxa-1,8-diazaspiro[5.5]undecane-8-carboxamide], for which the EC50 was 1000 to 10000 nM.

Regarding `CCNC(=O)N1CCC[C@@]2(CCOC(=O)N2)[C@H]1Cc1cccc(-c2ccccc2)c1` (racemic) [Example 25, (Trans)-7-({[1,1′-biphenyl]-3-yl}methyl)-N-ethyl-2-oxo-3-oxa-1,8-diazaspiro[5.5]undecane-8-carboxamide], the EC50 was above 10000 nM.

In the case of `CCNC(=O)N1CCC[C@@]2(CNS(=O)(=O)N2)[C@@H]1Cc1cccc(-c2ccccc2)c1` (racemic) [Example 30, (CIS)-6-({[1,1′-biphenyl]-3-yl}methyl)-N-ethyl-2,2-dioxo-2λ^6-thia-1,3,7-triazaspiro[4.5]decane-7-carboxamide], the EC50 is above 10000 nM.

Regarding `CCNC(=O)N1CCCC2(CCCC(=O)N2)C1CO[C@H]1CC[C@@H](c2ccccc2)CC1` (mixture of isomers) [Example 33, rel-(6S,7R)-N-ethyl-2-oxo-7-({[(CIS)-4-phenylcyclohexyl]oxy}methyl)-1,8-diazaspiro[5.5]undecane-8-carboxamide], the EC50 is below 100 nM.

`CCNC(=O)N1CCCC2(COCS(=O)(=O)N2)C1CO[C@H]1CC[C@@H](c2ccccc2)CC1` (mixture of isomers) [Example 36, rel-(6S,7R)-N-ethyl-2,2-dioxo-7-({[(CIS)-4-phenylcyclohexyl]oxy}methyl)-4-oxa-2λ^6-thia-1,8-diazaspiro[5.5] undecane-8-carboxamide]: the EC50 is 100 to 1000 nM.

In the case of `CCNC(=O)N1CCCC2(CCCS(=O)(=O)N2)C1CO[C@H]1CC[C@@H](c2ccccc2)CC1` (mixture of isomers) [Example 37, rel-(6R,7R)-N-ethyl-2,2-dioxo-7-({[(CIS)-4-phenylcyclohexyl]oxy}methyl)-2λ^6-thia-1,8-diazaspiro[5.5] undecane-8-carboxamide], the EC50 was 100 to 1000 nM.

For `CCNC(=O)N1CCCC2(COCCS(=O)(=O)N2)C1CO[C@H]1CC[C@@H](c2ccccc2)CC1` (mixture of isomers) [Example 38, rel-(1R,6S)-N-ethyl-8,8-dioxo-1-({[(CIS)-4-phenylcyclohexyl]oxy}methyl)-11-oxa-8λ^6-thia-2,7-diazaspiro[5.6]dodecane-2-carboxamide], the EC50 is 100 to 1000 nM.

On to `CN1CC(=O)NC2(CCCN(C(=O)OCC(F)F)C2CO[C@H]2CC[C@@H](c3ccccc3)CC2)C1` (mixture of isomers) [Example 56, 2,2-difluoroethyl-rel-(6R,7R)-4-methyl-2-oxo-7-({[(CIS)-4-phenylcyclohexyl]oxy}methyl)-1,4,8-triazaspiro [5.5]undecane-8-carboxylate], for which the EC50 is 100 to 1000 nM.

As to `CN1CCC2(CCCN(C(=O)OCC(F)F)C2CO[C@H]2CC[C@@H](c3ccccc3)CC2)NC1=O` (mixture of isomers) [Example 57, 2,2-difluoroethyl-rel-(6R,7R)-3-methyl-2-oxo-7-({[(CIS)-4-phenylcyclohexyl]oxy}methyl)-1,3,8-triazaspiro [5.5]undecane-8-carboxylate], the EC50 was above 10000 nM.

Take `O=C1NC2(CCCN(C(=O)OCC(F)F)C2CO[C@H]2CC[C@@H](c3ccccc3)CC2)CCO1` (mixture of isomers) [Example 65, 2,2-difluoroethyl-rel-(6R,7R)-2-oxo-7-({[(CIS)-4-phenylcyclohexyl]oxy}methyl)-3-oxa-1,8-diazaspiro[5.5] undecane-8-carboxylate]: the EC50 lay within 100 to 1000 nM.

For `O=C1NC2(CCCN(CC(F)(F)F)C2CO[C@H]2CC[C@@H](c3ccccc3)CC2)CCO1` (mixture of isomers) [Example 68, rel-(6R,7R)-7-({[(CIS)-4-phenylcyclohexyl]oxy}methyl)-8-(2,2,2-trifluoroethyl)-3-oxa-1,8-diazaspiro[5.5] undecan-2-one], the EC50 was above 10000 nM.

For the compound `CCNC(=O)N1C[C@@H](C)C2(COCC(=O)N2)C1Cc1cccc(-c2cc(F)cc(F)c2)c1F` (mixture of isomers) [Example 70, rel-(1S,5S)-(4S)-N-ethyl-4-methyl-7-oxo-1-({2,3′,5′-trifluoro-[1,1′-biphenyl]-3-yl}methyl)-9-oxa-2,6-diazaspiro[4.5]decane-2-carboxamide], the EC50 lay in the range of 1000 to 10000 nM.

As for `O=C1COCC2(CCN(C(=O)[C@H]3C[C@@H](F)C3)C2Cc2cccc(-c3cc(F)cc(F)c3)c2F)N1` (mixture of isomers) [Example 71, rel-(1S,5S)-2-[(1s,3s)-3-fluorocyclobutanecarbonyl]-1-({2,3′,5′-trifluoro-[1,1′-biphenyl]-3-yl}methyl)-9-oxa-2,6-diazaspiro[4.5]decan-7-one], the EC50 is 100 to 1000 nM.

With `CCNC(=O)N1CCCC2(COCC(=O)N2)C1COC1CCN(c2ncc(F)cn2)CC1` (racemic) [Example 76, rel-(6S,7R)-N-ethyl-7-({[1-(5-fluoropyrimidin-2-yl)piperidin-4-yl]oxy}methyl)-2-oxo-4-oxa-1,8-diazaspiro[5.5]undecane-8-carboxamide], the EC50 is 100 to 1000 nM.

`O=C1COCC2(CCCN(C(=O)OCC(F)F)C2COC2CCN(c3ncc(F)cn3)CC2)N1` (racemic) [Example 77, 2,2-difluoroethyl-rel-(6S,7R)-7-({[1-(5-fluoropyrimidin-2-yl)piperidin-4-yl]oxy}methyl)-2-oxo-4-oxa-1,8-diazaspiro[5.5]undecane-8-carboxylate]: the EC50 was 1000 to 10000 nM.

As to `O=C1COCC2(CCCN(C(=O)[C@H]3C[C@@H](F)C3)C2COC2CCN(c3ncc(F)cn3)CC2)N1` (mixture of isomers) [Example 78, rel-(6S,7R)-8-(3-fluorocyclobutanecarbonyl)-7-({[1-(5-fluoropyrimidin-2-yl)piperidin-4-yl]oxy}methyl)-4-oxa-1,8-diazaspiro[5.5]undecan-2-one], the EC50 was in the range of 100 to 1000 nM.

In the case of `CCNC(=O)N1CCCC2(COC(F)C(=O)N2)C1CO[C@H]1CC[C@@H](c2ccccc2)CC1` (relative stereo) [Example 41, rel-(6S,7R)-N-ethyl-3-fluoro-2-oxo-7-({[(CIS)-4-phenylcyclohexyl]oxy}methyl)-4-oxa-1,8-diazaspiro[5.5] undecane-8-carboxamide], the EC50 is below 100 nM.

Take `CCNC(=O)N1CCC[C@@]2(COCCC(=O)N2)[C@@H]1CO[C@H]1CC[C@@H](c2ccccc2)CC1` (relative stereo) [Example 55, rel-(1R,6S)-N-ethyl-8-oxo-1-({[(CIS)-4-phenylcyclohexyl]oxy}methyl)-11-oxa-2,7-diazaspiro[5.6]dodecane-2-carboxamide]: the EC50 is below 100 nM.
